Measured values reported in patent US6248739A, “Quinolinecarboxamides as antiviral agents” (Pharmacia & Upjohn Company, priority 1999, dated 2001).

The compounds below were run against T1, HCMV polymerase (Human cytomegalovirus, UniProt P08546) (assay: biochemical). Settings: not given.
T1 construct: made in house; host or cells: recombinant baculovirus-infected SF-9 insect cells
Description: The HCMV polymerase assay is performed using a scintillation proximity assay (SPA) as described in several references, such as N. D. Cook, et al., Pharmaceutical Manufacturing International, pages 49-53 (1992); K. Takeuchi, Laboratory Practice, September issue (1992); U.S. Pat. No. 4,568,649 (1986); which are incorporated by reference herein. Reactions are performed in 96-well plates. The assay is conducted in 100 μl volume with 5.4 mM HEPES (pH 7.5), 11.7 mM KCl, 4.5 mM MgCl2, 0.36 mg/ml BSA, and 90 nM ^3 H-dTTP. Assays are run with and without CHAPS, (3-[(3-Cholamidopropyl)dimethylammonio]-1-propane-sulfonate) at a final concentration of 2 mM. HCMV polymerase is diluted in enzyme dilution buffer containing 50% glycerol, 250 mM NaCl, 10 mM HEPES (pH 7.5), 100 μg/ml BSA, and 0.01% sodium azide. The HCMV polymerase, which is expressed in recombinant baculovirus-infected SF-9 cells and purified according to literature procedures, is added at 10% (or 10 μl) of the final reaction volume, i.e., 100 μl. Compounds are diluted in 50% DMSO and 10 μl are added to each well. Control wells contain an equivalent concentration of DMSO. Unless noted otherwise, reactions are initiated via the addition of 6 nM biotinylated poly(dA)-oligo(dT) template/primer to reaction mixtures containing the enzyme, substrate, and compounds of interest. Plates are incubated in a 25 C. or 37 C. H2 O bath and terminated via the addition of 40 μl/reaction of 0.5 M EDTA (pH 8) per well. Reactions are terminated within the time-frame during which substrate incorporation is linear and varied depending upon the enzyme and conditions used, i.e., 30 min. for HCMV polymerase. Ten μl of streptavidin-SPA beads (20 mg/ml in PBS/10% glycerol) are added following termination of the reaction. Plates are incubated 10 min. at 37 C., then equilibrated to room temperature, and counted on a Packard Topcount. Linear regressions are performed and IC50 's are calculated using computer software.
A modified version of the above HCMV polymerase assay is performed as described above, but with the following changes: Compounds are diluted in 100% DMSO until final dilution into assay buffer. In the previous assay, compounds are diluted in 50% DMSO. 4.5 mM dithiotherotol (DTT) is added to the polymerase buffer.

T1 sequence (P08546 whole entry): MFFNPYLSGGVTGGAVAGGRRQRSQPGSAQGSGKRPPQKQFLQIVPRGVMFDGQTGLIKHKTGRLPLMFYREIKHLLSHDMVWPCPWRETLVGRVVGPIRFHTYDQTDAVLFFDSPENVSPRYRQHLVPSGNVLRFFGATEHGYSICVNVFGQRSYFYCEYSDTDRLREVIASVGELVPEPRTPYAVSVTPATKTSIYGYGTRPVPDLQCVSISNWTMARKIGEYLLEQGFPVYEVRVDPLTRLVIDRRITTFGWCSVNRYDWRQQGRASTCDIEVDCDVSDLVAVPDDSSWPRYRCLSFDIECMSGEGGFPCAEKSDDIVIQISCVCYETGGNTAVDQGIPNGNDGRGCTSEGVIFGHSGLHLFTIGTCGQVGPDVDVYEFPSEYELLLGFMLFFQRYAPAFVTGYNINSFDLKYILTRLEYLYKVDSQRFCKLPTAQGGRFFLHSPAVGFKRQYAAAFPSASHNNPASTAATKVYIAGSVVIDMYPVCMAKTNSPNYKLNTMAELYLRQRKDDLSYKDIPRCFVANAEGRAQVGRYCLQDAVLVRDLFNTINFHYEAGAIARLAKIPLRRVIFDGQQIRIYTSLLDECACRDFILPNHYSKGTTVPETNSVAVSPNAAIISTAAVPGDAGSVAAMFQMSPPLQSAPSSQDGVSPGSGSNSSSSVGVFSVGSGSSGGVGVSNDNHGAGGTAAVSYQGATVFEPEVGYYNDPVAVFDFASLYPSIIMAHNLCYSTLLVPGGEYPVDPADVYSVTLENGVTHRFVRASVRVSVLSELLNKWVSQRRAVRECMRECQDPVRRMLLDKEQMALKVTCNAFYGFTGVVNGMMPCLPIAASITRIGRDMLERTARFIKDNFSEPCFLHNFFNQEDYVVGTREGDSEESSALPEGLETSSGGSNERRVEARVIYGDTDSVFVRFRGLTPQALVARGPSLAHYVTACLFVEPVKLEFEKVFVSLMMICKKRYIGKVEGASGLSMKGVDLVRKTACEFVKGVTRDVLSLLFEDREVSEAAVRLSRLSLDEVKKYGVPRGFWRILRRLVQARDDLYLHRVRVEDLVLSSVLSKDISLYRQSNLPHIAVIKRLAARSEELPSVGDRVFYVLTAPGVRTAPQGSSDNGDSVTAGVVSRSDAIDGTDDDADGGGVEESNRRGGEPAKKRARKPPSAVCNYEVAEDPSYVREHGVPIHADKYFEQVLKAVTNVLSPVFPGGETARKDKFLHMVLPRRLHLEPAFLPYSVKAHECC

SMILES	IC50 [µM]
CN1CCCC1CCn1cc(C(=O)NCc2ccc(Cl)cc2)c(=O)c2cc(C#CCO)ccc21 (centres unmarked) [Example 16, N-(4-Chlorobenzyl)-1,4-dihydro-6-(3-hydroxy-1-propynyl)-1-[2-(1-methyl-2-pyrrolindinyl)ethyl]-4-oxo3-quinolinecarboxamide]	2.8

Same assay, conditions: HCMV polymerase; SPA; modified assay: compounds in 100% DMSO, 4.5 mM DTT

SMILES	IC50 [µM]
COCCOCCn1cc(C(=O)NCc2ccc(Cl)cc2)c(=O)c2cc(CSC)ccc21 [Example 93, N-(4-Chlorobenzyl)-1-[2-(2-methoxyethoxy)ethyl]-6-[(methylsulfanyl)methyl]-4-oxo-1,4-dihydro-3-quinolinecarboxamide]	6.2
Nn1cc(C(=O)NCc2ccc(Cl)cc2)c(=O)c2cc(C#CCO)ccc21 [Example 118, 1-Amino-N-(4-chlorobenzyl)-6(3-hydroxy-1-propynyl)-4-oxo-1,4-dihydro-3-quinolinecarboxamide]	1.1
Cn1cc(C(=O)NCc2ccc(Cl)cc2)c(=O)c2cc(CN3CCOc4ccccc43)ccc21 [Example 49, N-(4-Chlorobenzyl)-6-(2,3-dihydro-4H-1,4-benzoxazin-4-ylmethyl)-1-methyl-4-oxo-1,4-dihydro-3-quinolinecarboxamide]	2.2
CS(=O)(=O)CCCn1cc(C(=O)NCc2ccc(Cl)cc2)c(=O)c2cc(CN3CCOCC3)ccc21 [Example 67, N-(4-Chlorobenzyl)-1-[3-(methylsulfonyl)propyl]-6-(4-morpholinylmethyl)-4-oxo-1,4dihydro-3-quinolinecarboxamide]	0.7
Cn1cc(C(=S)NCc2ccc(Cl)cc2)c(=O)c2cc(C#CCO)ccc21 [Example 94, N-(4-chlorobenzyl)-6-(3-hydroxy-1-propynyl)-1-methyl4-oxo-1,4-dihydro-3-quinolinecarbothioamide]	0.77
Cn1cc(C(=O)NCc2ccc(Cl)cc2)c(=O)c2cc(CN(CCO)Cc3ccccc3)ccc21 [Example 50, 6-((Benzyl(2-hydroxyethyl)amino)methyl)-N-(4-chlorobenzyl)-1-methyl-4-oxo-1,4-dihydro-3-quinolinecarboxamide]	11.5
CCCn1cc(C(=O)NCc2ccc(Cl)cc2)c(=O)c2cc(C#CCO)ccc21 [Example 11, N-(4-Chlorobenzyl)-6-(3-hydroxy-1-propynyl)-4-oxo-1-propyl-1,4-dihydro-3-quinolinecarboxamide]	1.5
O=C(NCc1ccc(Cl)cc1)c1cn(CS(=O)(=O)c2ccc(Cl)cc2)c2ccc(CN3CCOCC3)cc2c1=O [Example 103, N-(4-Chlorobenzyl)-1-([(4-chlorophenyl)sulfonyl]methyl)-6-(4-morpholinylmethyl)-4-oxo-1,4-dihydro-3-quinolinecarboxamide]	0.83
CC(C)(C)OC(=O)Cn1cc(C(=O)NCc2ccc(Cl)cc2)c(=O)c2cc(C#CCO)ccc21 [Example 28, tert-Butyl 2-[3-{[(4-chlorobenzyl)amino]carbonyl}-6-(3-hydroxy-1-propynyl)-4-oxo-1(4H)-quinolinyl]acetate]	1.8
Cn1cc(C(=O)NCc2ccc(Cl)cc2)c(=O)c2cc(CN3CC(=NO)C3)ccc21 [Example 99, N-(4-Chlorobenzyl)-6-{[3-(ydroxyimino)-1-azetidinyl]methyl}-1-methyl-4-oxo-1,4-dihydro-3-quinolinecarboxamide]	8
Cn1cc(C(=O)NCc2ccc(Cl)cc2)c(=O)c2cc(CN3CC(O)(O)C3)ccc21 [Example 78, N-(4-Chlorobenzyl)-6-[(3,3-dihydroxy-1-azetidinyl)methyl]-1-methyl-4-oxo-1,4-dihydro-3-quinolinecarboxamide]	0.27
COn1cc(C(=O)NCc2ccc(Cl)cc2)c(=O)c2ccccc21 [Example 123, N-(4-Chlorobenzyl)-1-methoxy-4-oxo-1,4-dihydro-3-quinolinecarboxamide]	8.2
Cn1cc(C(=O)NCc2ccc(C#N)cc2)c(=O)c2cc(C#CCO)ccc21 [Example 43, N-(4-Cyanobenzyl)-6-(3-hydroxy-1-propynyl)-1-methyl-4-oxo-1,4-dihydro-3-quinolinecarboxamide]	9.4
Cn1cc(C(=O)NCc2ccc(Cl)cc2)c(=O)c2cc(CCCOP(=O)(O)O)ccc21 [Example 33, 3-(3-{[(4-Chlorobenzyl)amino]carbonyl}-1-methyl-4-oxo-1,4-dihydro-6-quinolinyl)propyl dihydrogen phosphate]	3.7
CCC(C)n1cc(C(=O)NCc2ccc(Cl)cc2)c(=O)c2cc(C#CCO)cc(OC)c21 (centres unmarked) [Example 3, 1-(sec-butyl)-N-(4-chlorobenzyl)-6-(3-hydroxy-1-propynyl)-8-methoxy-4-oxo-1,4-dihydro-3-quinolinecarboxamide]	2.3
O=C(NCc1ccc(Cl)cc1)c1cn(CS(=O)(=O)c2ccccc2)c2ccc(CN3CCOCC3)cc2c1=O [Example 82, N-(4-Chlorobenzyl)-6-(4-morpholinylmethyl)-4-oxo-1-[(phenylsulfonyl)methyl]-1,4-dihydro-3-quinolinecarboxamide]	0.53

SMILES	IC50 [µM]
CSCn1cc(C(=O)NCc2ccc(Cl)cc2)c(=O)c2cc(CN3CCOCC3)ccc21 [Example 73]	1.1
O=C(NCc1ccc(Cl)cc1)c1cn(COCCO)c2ccc(CN3CCOCC3)cc2c1=O [Example 107]	0.84
CCOCCOCCn1cc(C(=O)NCc2ccc(Cl)cc2)c(=O)c2cc(CN3CCOCC3)ccc21 [Example 58, N-(4-Chlorobenzyl)-1-[2-(2-ethoxyethoxy)ethyl]-6-(4-morpholinylmethyl)-4-oxo-1,4-dihydro-3-quinolinecarboxamide]	1.4
Cn1cc(C(=S)NCc2ccc(Cl)cc2)c(=O)c2cc(CN3CCOCC3)ccc21 [Example 95, N-(4-Chlorobenzyl)-1-methyl-6-(4-morpholinylmethyl)-4-oxo-1,4-dihydro-3-quinolinecarbothioamide]	0.3
CCN(CCO)c1ccc2c(c1)c(=O)c(C(=O)NCc1ccc(Cl)cc1)cn2C [Example 24, N-(4-Chlorobenzyl)-6-[ethyl(2-hydroxyethyl)amino]-1-methyl-4-oxo-1,4-dihydro-3-quinolinecarboxamide]	23.6
Cn1cc(C(=O)NCc2ccc(Cl)cc2)c(=O)c2cc(CN=[N+]=[N-])ccc21 [Example 51, 6-(Azidomethyl)-N-(4-chlorobenzyl)-1-methyl-4-oxo-1,4-dihydro-3-quinolinecarboxamide]	1.3
Cn1cc(C(=O)NCc2ccc(Cl)cc2)c(=O)c2cc(CN(CCO)CCO)ccc21 [Example 44, 6-((Bis(2-hydroxyethyl)amino)methyl)-N-(4-chlorobenzyl)-1-1-methyl-4-oxo-1,4-dihydro-3-quinolinecarboxamide.]	9.3
CC(C)n1cc(C(=O)NCc2ccc(Cl)cc2)c(=O)c2cc(C#CCO)ccc21 [Example 1, N-(4-Chlorobenzyl)-6-(3-hydroxy-1-propynyl)-1-isopropyl-4-oxo-1,4-dihydro-3-quinolinecarboxamide]	1.7
COCCOCCn1cc(C(=O)NCc2ccc(Cl)cc2)c(=O)c2cc(CN3CCC(=O)CC3)ccc21 [Example 85, N-(4-Chlorobenzyl)-1-[2-(2-methoxyethoxy)ethyl]-4-oxo-6-[(4-oxo-1-piperidinyl)methyl]-1,4-dihydro-3-quinolinecarboxamide]	6
COCCOCCn1cc(C(=O)NCc2ccc(Cl)cc2)c(=O)c2cc(C#CCO)ccc21 [Example 42, N-(4-Chlorobenzyl)-6-(3-hydroxy-1-propynyl)-1-[2-(2-methoxyethoxy)ethyl]-4-oxo-1,4-dihydro-3-quinolinecarboxamide]	1.2
CC(C)(C)n1cc(C(=O)NCc2ccc(Cl)cc2)c(=O)c2cc(C#CCO)ccc21 [Example 39]	2.2
O=C(OCCOCn1cc(C(=O)NCc2ccc(Cl)cc2)c(=O)c2cc(CN3CCOCC3)ccc21)c1ccccc1 [Example 106, 2-{[3-{[(4-Chlorobenzyl)amino]carbonyl}-6-(4-morpholinylmethyl)-4-oxo-1(4H)-quinolinyl]methoxy}ethyl benzoate]	3.1
Cn1cc(C(=O)NCc2ccc(Cl)cc2)c(=O)c2cc(CCCO)cc(OC(CO)CO)c21 [Example 5, N-(4-Chlorobenzyl)-8-[2-hydroxy-1-(hydroxymethyl)ethoxy]-6-(3-hydroxypropyl)1-methyl-4-oxo-1,4-dihydro-3-quinolinecarboxamide]	1.6
Cn1cc(C(=O)NCc2ccc(Cl)cc2)c(=O)c2cccc(C#CCCO)c21 [Example 97, N-(4-Chlorobenzyl)-8-(4-hydroxy-1-butynyl)-1-methyl-4-oxo-1,4-dihydro-3-quinolinecarboxamide]	1.5
O=C(NCc1ccc(Cl)cc1)c1cn(CCSc2ccccc2)c2ccc(CN3CCOCC3)cc2c1=O [Example 72]	3
